Source: patent publication EP3578378B1, “RECORDING MEDIUM AND METHOD FOR PRODUCING RECORDING MEDIUM” (CANON KABUSHIKI KAISHA, priority 2018, dated 2019)
≈ marks a conversion by molar mass, not a printed value.

Assay: Solubility of compound (B) in water at 20°C (10.0 g sample in 100 mL ion-exchange water, undissolved or recrystallized sample weighed)
Format: physicochemical
Details: stirred at 80°C for one hour, cooled to 20°C, more than 10.0 g/100 mL if completely dissolved
Experimental: The method for measuring this solubility is as follows.
First, 10.0 g of a sample to be measured is added to 100 mL of ion-exchange water, and the resulting mixture is stirred at 80°C for one hour to dissolve the sample. Next, the resulting solution in which the sample is dissolved is cooled to 20°C. The sample that remains without being dissolved or is recrystallized is collected, and the weight thereof is determined. […] Crosslinking Agent

Compound	solubility thermodynamic at 1 h	Solubility in water at 20°C
Oc1ccc(O)c(O)c1 [1,2,4-Trihydroxybenzene, 1,2,4-trihydroxybenzene, reference compound]	> 100 mg/mL	
NC(=O)/C=C/C(N)=O [Fumaramide, fumaramide]		0.2 g/100 mL
O=C(O)/C=C/C(=O)O [Fumaric acid, fumaric acid]		0.5 g/100 mL
O=C(O)c1cc(O)c(O)c(O)c1 [Gallic acid, gallic acid]		1.0 g/100 mL
O=C(O)/C=C\C(=O)O [Maleic acid, maleic acid, reference compound]		>10.0 g/100 mL
NC(=O)c1cc(C(N)=O)cc(C(N)=O)c1 [Trimesamide, trimesamide]		0.2 g/100 mL
CC(=O)[O-].CC(=O)[O-].[O-2].[Zr+4] [ZrO(C2H3O2)2, reference compound]		>10 g/100 mL
[Cl-].[Cl-].[O]=[Zr+2] [ZrOCl2, reference compound]		>10 g/100 mL

Next, values leading:

solubility thermodynamic at 1 h	Solubility in water at 20°C	Compound
	2.0 g/100 mL	O=C(O)c1cccc(C(=O)O)c1C(=O)O [Hemimellitic acid, hemimellitic acid]
15 mg/mL (≈ 59 mM)		O=C(O)c1cc(C(=O)O)c(C(=O)O)cc1C(=O)O [Pyromellitic acid, pyromellitic acid]
	2.0 g/100 mL	O=C(O)c1ccc(C(=O)O)c(C(=O)O)c1 [Trimellitic acid, trimellitic acid]
	0.5 g/100 mL	O=C(O)c1cc(C(=O)O)cc(C(=O)O)c1 [Trimesic acid, trimesic acid]
